According to patent US20170042878A1 (THE GENERAL HOSPITAL CORPORATION, priority 2012, published 2017):
Entries after “also recorded” stand apart in the source; their conditions may differ. Read-outs that look alike come from different tables or passages of the source.

Experiments:
mice [1] = settings: cited from earlier work
rats [2] = settings: cited from earlier work
mTOR pathway = settings: ketamine 5 and 10 mg/kg i.p., cited from earlier work
depressed patients = settings: cited from earlier work
[3] = in vivo; cited from earlier work
C57BL/6N mice [4] = test: Two-day forced swim test (FST) in mice; format: in vivo, mouse
Procedure: (§1) Male 10 week C57BL/6N mice (Taconic) acclimated to a holding facility one week prior to testing. A two-day FST paradigm was employed, in which mice were exposed to a 10 minute test in absence of drug, and tested the following day in presence of drug in a 6 minute test. […] All animals were drug naïve and not previously exposed to behavioral testing.
Male C57BL6N/Tac mice were purchased from Taconic Farms (Germantown, N.Y.) at 10 weeks of age. Mice were housed four mice per cage upon arrival under a 12:12 h light/dark cycle and were allowed to acclimate for approximately one week prior to behavioral procedures. Food and water were provided ad libitum. All procedures followed the National Institutes of Health Guide for the Care and Use of Laboratory Animals, and were approved by the Massachusetts Institute of Technology Animal Care and Use Committee.
Mice were tested in a two day forced swim test (FST) procedure. On day 1, all mice received mock intraperitoneal vehicle (i.p.) injections to acclimate to the injection procedure and, 30 minutes later, were placed into one of five identical cylindrical chambers (24 cm×15 cm) filled approximately halfway with warm water (26)±2° for 10 minutes with no data collected. On day 2, mice received i.p. injections 30 minutes prior to being placed in a cylinder for a 6 minute session and immobility time was scored automatically (EthoVisionXT; Noldus Information Technology; Wageningen, Netherlands) during the final 4 minutes.
For all FST behavioral experiments, the time spent immobile was the dependent variable, and data were analyzed by one-way analysis of variance (ANOVA) and Tukey post-hoc comparisons using SPSS v. 18 (IBM).

[5] = ketamine injection 1 mg/kg; cited from earlier work
BDNF = settings: ketamine sub-anesthetic doses; correlated with antidepressant effect; cited from earlier work
rabbit = settings: drugs injected immediately after completion of daily training sessions; cited from earlier work
C57BL/6N mice [6] = test: Home cage observation of motor activation after administration, prior to FST; settings: scopolamine 0.5 and 1.0 mg/kg i.p.
Procedure: as §1
A dose at the low end of this range was selected (3 mg/kg i.p.) and administered to adult male C57BL/6N mice 30 min prior to the FST.

NMDA receptor 2A = settings: rat, in vivo; cited from earlier work
mice [7] = settings: scopolamine single administration 0.1 or 0.2 mg/kg i.p.; P<0.01 or P<0.001; cited from earlier work
NMDA receptor 1A = settings: rat, in vivo; cited from earlier work
rats [8] = settings: rat, in vivo; cited from earlier work
mTOR signaling = settings: cited from earlier work

In the case of CNC1(c2ccccc2Cl)CCCCC1=O (stereo not shown) [ketamine], the “antidepressant effect in the FST” value (mice [1]; ketamine 3 mg/kg i.p., within 30 minutes, mouse models of depression (Autry et al., 2011)) is listed as “exhibited an antidepressant effect”, the “forced swim test immobility time versus vehicle” value (rats [2]; ketamine 10 or 15 mg/kg i.p. (Garcia et al., 2008)) is listed as “reduced forced swim test immobility time” and the “forced swim test effect” value (rats [2]; ketamine anesthetic dose 80 mg/kg i.p., immediately after treatment (Li et al., 2010)) is listed as “no effect”. For the same compound, the “forced swim test immobility time versus vehicle” value (rats [2]; ketamine anesthetic dose 160 mg/kg i.p., tested 3, 7, or 10 days after treatment (Yilmaz et al., 2002)) was “significantly decreased”, the “mature dendritic spines of medial PFC pyramidal neurons and serotonin-mediated cortical neurotransmission” value (mTOR pathway; at 24 hours) was “concomitant increases” and the “levels of pre- and postsynaptic proteins” value (mTOR pathway; two hours after treatment) was “increased levels”. For the same compound, the “phosphorylation and activation of mTOR pathway molecules in synaptoneurosomes from prefrontal cortex” value (mTOR pathway; within one hour of treatment) was “increase phosphorylation and activate several molecules in the mTOR pathway”, the “persistence of improvement in depression ratings” value (depressed patients; ketamine single intravenous infusion 0.5 mg/kg (Zarate et al., 2006)) was “approximately 1 week” and the “time to significant improvement in depression ratings after administration” value (depressed patients; ketamine single intravenous infusion 0.5 mg/kg) was 1 to 2 h. For the same compound, the “recognition memory aspect of task performance” value [3] was “dose-dependent impairment”, the “reduction in immobility versus vehicle” value (C57BL/6N mice [4]; ketamine 3 mg/kg i.p. 30 min prior to FST, modest and non-significant, FIG. 1) was 18% and the “effect on FST immobility time versus vehicle” value (C57BL/6N mice [4]; ketamine 3 mg/kg i.p. 30 minutes prior to testing, p>0.05, FIG. 1) was “modest non-significant antidepressant effect; also recorded: did not significantly reduce immobility time”. The cerebral vasodilatation [5] was “significant cerebral vasodilatation”, the “levels of BDNF in the hippocampus” value (BDNF) was “increased levels of BDNF” and the “effect on conditioning of the nictitating membrane response” value (rabbit) was “accelerates”.

For CN1[C@@H]2C[C@@H](OC(=O)[C@H](CO)c3ccccc3)C[C@H]1[C@@H]1O[C@@H]12 [scopolamine], the “motor activation in the home cage after administration” value (C57BL/6N mice [6]) is given as “noticeably hyperactive; also recorded: visibly hyperactive”, the “immobility times in the forced swim test versus vehicle” value (mice [1]; scopolamine single administration 0.1 or 0.2 mg/kg i.p., both P<0.001) is given as “decreased immobility times” and the “effect on antidepressant effects of desipramine and nomifensine in the forced swim test” value (rats [2]; scopolamine 0.5-1.0 mg/kg i.p., desipramine 20 or 30 mg/kg i.p., nomifensine 2.5 or 5 mg/kg i.p. (Mancinelli et al., 1988)) is given as “potentiated the antidepressant effects”. The “expression of NMDA receptor 2A” value (NMDA receptor 2A) was “decrease expression”, the “time after which patients report improvement” value (depressed patients; scopolamine 0.004 mg/kg infusion (Furey and Drevets, 2006)) was “approximately 24 hours” and the “clinical outcome in depressed patients” value (depressed patients; scopolamine 0.004 mg/kg infusion, assessed 3 days after treatment) was “clinical improvement”. The “incremental acquisition aspect of task performance” value [3] was “dose x difficulty related impairment”, the “recognition memory aspect of task performance” value [3] was “dose x difficulty related impairment” and the “immobility times in the tail suspension test versus vehicle” value (mice [7]) was “decreased immobility times”. The “effect on FST immobility time versus vehicle” value (C57BL/6N mice [4]; scopolamine 0.1 mg/kg i.p., p>0.05, FIG. 2) was “no change in immobility time versus vehicle; also recorded: did not significantly reduce immobility time”, the “effect on FST immobility time versus vehicle” value (C57BL/6N mice [4]; scopolamine 0.5 mg/kg and 1.0 mg/kg i.p., p<0.05, likely due to non-specific motor activation, FIG. 2) was “substantially reduced immobility time” and the “effect on ketamine-induced cerebral vasodilatation” value [5] was “blocked”. For the same compound, the “expression of NMDA receptor 1A” value (NMDA receptor 1A) was “decrease expression”, the adult neurogenesis (rats [8]) was “suppress adult neurogenesis” and the “effect on conditioning of the nictitating membrane response” value (rabbit) was “retards”. For the same compound, the mTOR signaling (mTOR signaling) was “rapidly activate mTOR signaling”.
